Experiments:
[1] = 10 mg/ml in PBS, about pH 7.3 to about pH 7.5, 37° C., after several hours
Procedure: Each was individually tested for stability in aqueous solution by adding the peptide at a concentration of 10 mg/ml to phosphate-buffered saline (PBS), and by measuring (e.g., by HPLC) at different time points over a period of 1 week (168 hours) the amount of peptide remaining in solution at a range of about pH 7.3 to about pH 7.5 at 37° C.

HIV-1LAI = settings: Lawless et al., 1996; cited from earlier work
HIV-1 = settings: regimen of antiviral agents containing T20 versus same regimen without T20; cited from earlier work

enfuvirtide
stability in aqueous solution [1]: minimal to no peptide detected in solution | EC50 against HIV-1LAI (HIV-1LAI): 0.5 ng/mL | HIV-1 viral load (HIV-1): significantly reduces | circulating CD4+ cell population (HIV-1): significantly increases

— patent US20060247416A1, “HIV gp41 HR2-derived synthetic peptides, and their use in therapy to inhibit transmission of human immunodeficiency virus” (priority 2004, published 2006)
